# Assay results from patent US20240246942A1, “KINASE INHIBITORS FOR THE TREATMENT OF NEURODEGENERATIVE DISEASES” (priority 2020, published 2024).
# Tests used:
# Assay in all cases: biochemical
# [1] = biological target: T1, panel of 374 wild-type kinases (Homo sapiens, UniProt P42681); conditions: read-out: % Enzyme Activity (relative to DMSO controls), kinase TXK
# T1 construct: purchased Reaction Biology Corporation
# T1 sequence (P42681 1-527): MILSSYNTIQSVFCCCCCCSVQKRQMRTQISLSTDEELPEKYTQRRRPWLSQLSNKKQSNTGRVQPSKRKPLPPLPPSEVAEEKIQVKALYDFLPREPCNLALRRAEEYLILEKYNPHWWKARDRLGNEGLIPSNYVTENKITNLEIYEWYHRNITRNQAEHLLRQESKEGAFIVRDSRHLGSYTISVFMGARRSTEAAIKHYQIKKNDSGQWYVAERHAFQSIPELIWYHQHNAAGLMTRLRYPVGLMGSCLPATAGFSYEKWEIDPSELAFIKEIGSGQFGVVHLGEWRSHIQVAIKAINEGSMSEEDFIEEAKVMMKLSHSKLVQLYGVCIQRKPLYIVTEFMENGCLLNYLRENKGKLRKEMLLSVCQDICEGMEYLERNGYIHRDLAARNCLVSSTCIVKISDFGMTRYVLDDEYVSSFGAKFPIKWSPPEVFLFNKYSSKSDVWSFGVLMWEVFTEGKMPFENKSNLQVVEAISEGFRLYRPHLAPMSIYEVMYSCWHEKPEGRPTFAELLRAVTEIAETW
# [2] = biological target: T2, panel of 374 wild-type kinases (Homo sapiens, UniProt Q16512); conditions: read-out: % Enzyme Activity (relative to DMSO controls), kinase PKN1/PRK1
# T2 construct: purchased Reaction Biology Corporation
# T2 sequence (Q16512 whole entry): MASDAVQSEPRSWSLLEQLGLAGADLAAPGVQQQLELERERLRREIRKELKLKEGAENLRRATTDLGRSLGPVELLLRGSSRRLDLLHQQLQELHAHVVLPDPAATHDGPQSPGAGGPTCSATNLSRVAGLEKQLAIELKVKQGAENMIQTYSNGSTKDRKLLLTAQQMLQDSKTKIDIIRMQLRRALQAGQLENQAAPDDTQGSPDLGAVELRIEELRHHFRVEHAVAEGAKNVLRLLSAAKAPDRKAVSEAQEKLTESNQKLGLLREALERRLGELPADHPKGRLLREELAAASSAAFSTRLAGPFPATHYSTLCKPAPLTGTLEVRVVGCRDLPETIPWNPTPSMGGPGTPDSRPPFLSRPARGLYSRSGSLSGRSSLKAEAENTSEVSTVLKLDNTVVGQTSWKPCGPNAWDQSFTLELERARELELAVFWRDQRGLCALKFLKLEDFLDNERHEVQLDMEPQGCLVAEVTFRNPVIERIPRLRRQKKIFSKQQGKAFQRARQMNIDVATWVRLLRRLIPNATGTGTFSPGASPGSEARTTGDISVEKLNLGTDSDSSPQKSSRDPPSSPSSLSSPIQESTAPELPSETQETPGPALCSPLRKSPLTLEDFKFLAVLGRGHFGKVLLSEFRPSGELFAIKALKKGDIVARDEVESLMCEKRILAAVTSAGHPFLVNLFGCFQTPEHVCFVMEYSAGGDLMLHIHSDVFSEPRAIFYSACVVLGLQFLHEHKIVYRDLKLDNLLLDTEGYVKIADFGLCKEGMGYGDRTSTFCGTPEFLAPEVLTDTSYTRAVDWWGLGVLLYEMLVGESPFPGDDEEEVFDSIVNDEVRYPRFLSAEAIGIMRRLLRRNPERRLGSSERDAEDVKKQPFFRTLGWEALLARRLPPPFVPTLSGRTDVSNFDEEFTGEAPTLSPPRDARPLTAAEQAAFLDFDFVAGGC
# [3] = biological target: T3, panel of 374 wild-type kinases (Homo sapiens, UniProt Q15375); conditions: read-out: % Enzyme Activity (relative to DMSO controls), EPHA7
# T3 construct: purchased Reaction Biology Corporation
# T3 sequence (Q15375 28-998): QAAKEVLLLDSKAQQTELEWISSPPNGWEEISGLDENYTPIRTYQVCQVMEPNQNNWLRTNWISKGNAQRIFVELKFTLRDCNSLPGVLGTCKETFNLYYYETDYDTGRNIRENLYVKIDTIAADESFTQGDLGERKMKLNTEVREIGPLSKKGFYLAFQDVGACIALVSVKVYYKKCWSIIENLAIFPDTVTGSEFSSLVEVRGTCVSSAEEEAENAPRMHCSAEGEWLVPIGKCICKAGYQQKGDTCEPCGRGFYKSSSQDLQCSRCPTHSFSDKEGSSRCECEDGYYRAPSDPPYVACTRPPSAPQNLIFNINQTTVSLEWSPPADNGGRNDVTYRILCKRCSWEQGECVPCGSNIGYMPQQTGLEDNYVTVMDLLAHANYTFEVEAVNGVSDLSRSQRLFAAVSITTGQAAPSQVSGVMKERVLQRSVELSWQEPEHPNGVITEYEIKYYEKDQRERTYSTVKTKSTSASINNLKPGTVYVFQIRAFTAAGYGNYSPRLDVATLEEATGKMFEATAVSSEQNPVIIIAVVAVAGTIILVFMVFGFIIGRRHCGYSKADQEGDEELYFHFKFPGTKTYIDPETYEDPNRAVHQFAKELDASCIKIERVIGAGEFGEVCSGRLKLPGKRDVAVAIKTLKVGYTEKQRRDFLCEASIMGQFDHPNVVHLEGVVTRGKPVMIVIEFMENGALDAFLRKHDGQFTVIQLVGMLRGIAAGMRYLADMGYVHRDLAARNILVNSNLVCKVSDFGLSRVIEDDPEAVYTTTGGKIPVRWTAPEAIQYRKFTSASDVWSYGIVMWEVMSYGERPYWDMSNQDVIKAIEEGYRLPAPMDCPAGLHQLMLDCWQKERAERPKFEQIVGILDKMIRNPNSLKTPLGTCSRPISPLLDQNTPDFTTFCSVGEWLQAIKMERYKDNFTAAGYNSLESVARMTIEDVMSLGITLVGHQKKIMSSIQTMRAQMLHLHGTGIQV
# [4] = biological target: T4, panel of 374 wild-type kinases (Homo sapiens, UniProt Q86UX6); conditions: read-out: % Enzyme Activity (relative to DMSO controls), kinase STK32C/YANK3
# T4 construct: purchased Reaction Biology Corporation
# T4 sequence (Q86UX6 whole entry): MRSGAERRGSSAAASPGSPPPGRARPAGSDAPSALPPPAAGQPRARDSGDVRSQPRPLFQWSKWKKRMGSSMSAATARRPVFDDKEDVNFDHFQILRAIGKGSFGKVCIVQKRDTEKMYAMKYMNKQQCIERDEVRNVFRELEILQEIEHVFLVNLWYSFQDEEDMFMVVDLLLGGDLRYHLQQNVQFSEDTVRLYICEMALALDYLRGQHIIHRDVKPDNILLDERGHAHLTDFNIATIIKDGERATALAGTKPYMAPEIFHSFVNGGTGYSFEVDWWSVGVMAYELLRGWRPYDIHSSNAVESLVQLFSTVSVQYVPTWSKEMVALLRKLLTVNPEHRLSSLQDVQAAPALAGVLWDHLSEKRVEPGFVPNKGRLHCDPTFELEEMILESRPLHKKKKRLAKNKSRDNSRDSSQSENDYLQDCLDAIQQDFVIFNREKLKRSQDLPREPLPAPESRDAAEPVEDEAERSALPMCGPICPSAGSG
# [5] = biological target: T5, panel of 374 wild-type kinases (Homo sapiens, UniProt P49674); conditions: read-out: % Enzyme Activity (relative to DMSO controls), CK1epsilon
# T5 construct: purchased Reaction Biology Corporation
# [6] = biological target: T6, panel of 374 wild-type kinases (Homo sapiens, UniProt Q02763); conditions: read-out: % Enzyme Activity (relative to DMSO controls), kinase TIE2/TEK
# T6 construct: purchased Reaction Biology Corporation
# T6 sequence (Q02763 23-1124): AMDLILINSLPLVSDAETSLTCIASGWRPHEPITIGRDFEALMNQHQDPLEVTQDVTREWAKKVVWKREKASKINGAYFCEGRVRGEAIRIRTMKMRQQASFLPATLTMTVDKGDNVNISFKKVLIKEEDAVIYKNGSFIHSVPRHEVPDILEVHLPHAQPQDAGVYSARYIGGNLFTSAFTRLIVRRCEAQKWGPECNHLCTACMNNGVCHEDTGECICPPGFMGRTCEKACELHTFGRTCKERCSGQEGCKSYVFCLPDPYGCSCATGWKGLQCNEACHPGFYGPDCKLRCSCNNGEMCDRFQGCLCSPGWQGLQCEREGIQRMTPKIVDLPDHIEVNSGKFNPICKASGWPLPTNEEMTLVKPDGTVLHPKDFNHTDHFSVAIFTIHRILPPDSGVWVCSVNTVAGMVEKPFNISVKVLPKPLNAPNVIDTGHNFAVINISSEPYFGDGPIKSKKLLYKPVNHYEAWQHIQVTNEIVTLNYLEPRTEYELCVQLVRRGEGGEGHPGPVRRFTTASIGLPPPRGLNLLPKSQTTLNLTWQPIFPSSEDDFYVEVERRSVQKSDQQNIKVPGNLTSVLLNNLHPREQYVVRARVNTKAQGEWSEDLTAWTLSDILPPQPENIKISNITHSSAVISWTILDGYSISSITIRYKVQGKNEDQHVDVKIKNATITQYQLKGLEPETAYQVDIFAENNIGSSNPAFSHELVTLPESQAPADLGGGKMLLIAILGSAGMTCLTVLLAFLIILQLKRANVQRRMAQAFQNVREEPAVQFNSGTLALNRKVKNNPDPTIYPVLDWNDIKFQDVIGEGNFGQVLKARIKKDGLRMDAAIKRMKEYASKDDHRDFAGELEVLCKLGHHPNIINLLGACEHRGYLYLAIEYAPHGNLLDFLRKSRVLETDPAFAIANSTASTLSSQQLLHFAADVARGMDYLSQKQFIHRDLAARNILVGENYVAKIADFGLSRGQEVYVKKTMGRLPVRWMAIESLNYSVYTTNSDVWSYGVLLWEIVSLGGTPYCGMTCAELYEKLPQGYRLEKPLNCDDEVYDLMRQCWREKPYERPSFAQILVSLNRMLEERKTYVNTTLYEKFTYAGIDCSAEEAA
# [7] = biological target: T7, panel of 374 wild-type kinases (Homo sapiens, UniProt O15146); conditions: read-out: % Enzyme Activity (relative to DMSO controls), MUSK
# T7 construct: purchased Reaction Biology Corporation
# T7 sequence (O15146 24-869): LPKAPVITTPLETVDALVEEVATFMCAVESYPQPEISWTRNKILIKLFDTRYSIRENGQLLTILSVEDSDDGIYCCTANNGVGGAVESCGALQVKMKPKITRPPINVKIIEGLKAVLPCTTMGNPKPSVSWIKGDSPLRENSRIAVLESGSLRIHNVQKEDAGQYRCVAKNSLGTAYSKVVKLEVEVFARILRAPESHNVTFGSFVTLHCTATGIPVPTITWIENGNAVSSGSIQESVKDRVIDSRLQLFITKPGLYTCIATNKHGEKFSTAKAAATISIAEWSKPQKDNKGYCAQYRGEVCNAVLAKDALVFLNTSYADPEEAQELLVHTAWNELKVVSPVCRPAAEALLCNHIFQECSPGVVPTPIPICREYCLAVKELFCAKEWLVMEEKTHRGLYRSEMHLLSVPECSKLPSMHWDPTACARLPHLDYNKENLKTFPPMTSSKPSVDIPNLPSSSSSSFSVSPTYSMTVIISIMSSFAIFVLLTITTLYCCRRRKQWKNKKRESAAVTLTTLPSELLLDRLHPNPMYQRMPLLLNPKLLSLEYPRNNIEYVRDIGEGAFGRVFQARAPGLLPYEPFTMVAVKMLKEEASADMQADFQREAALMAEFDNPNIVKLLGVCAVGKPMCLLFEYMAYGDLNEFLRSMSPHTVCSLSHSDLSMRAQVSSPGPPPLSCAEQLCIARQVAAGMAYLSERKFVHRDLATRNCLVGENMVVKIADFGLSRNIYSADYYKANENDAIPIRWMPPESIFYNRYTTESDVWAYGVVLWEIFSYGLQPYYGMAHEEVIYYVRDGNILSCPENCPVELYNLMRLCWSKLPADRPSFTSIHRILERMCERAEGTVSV
# [8] = biological target: T8, panel of 374 wild-type kinases (Homo sapiens, UniProt O95819); conditions: read-out: % Enzyme Activity (relative to DMSO controls), HGK/MAP4K4
# T8 construct: purchased Reaction Biology Corporation
# T8 sequence (O95819 whole entry): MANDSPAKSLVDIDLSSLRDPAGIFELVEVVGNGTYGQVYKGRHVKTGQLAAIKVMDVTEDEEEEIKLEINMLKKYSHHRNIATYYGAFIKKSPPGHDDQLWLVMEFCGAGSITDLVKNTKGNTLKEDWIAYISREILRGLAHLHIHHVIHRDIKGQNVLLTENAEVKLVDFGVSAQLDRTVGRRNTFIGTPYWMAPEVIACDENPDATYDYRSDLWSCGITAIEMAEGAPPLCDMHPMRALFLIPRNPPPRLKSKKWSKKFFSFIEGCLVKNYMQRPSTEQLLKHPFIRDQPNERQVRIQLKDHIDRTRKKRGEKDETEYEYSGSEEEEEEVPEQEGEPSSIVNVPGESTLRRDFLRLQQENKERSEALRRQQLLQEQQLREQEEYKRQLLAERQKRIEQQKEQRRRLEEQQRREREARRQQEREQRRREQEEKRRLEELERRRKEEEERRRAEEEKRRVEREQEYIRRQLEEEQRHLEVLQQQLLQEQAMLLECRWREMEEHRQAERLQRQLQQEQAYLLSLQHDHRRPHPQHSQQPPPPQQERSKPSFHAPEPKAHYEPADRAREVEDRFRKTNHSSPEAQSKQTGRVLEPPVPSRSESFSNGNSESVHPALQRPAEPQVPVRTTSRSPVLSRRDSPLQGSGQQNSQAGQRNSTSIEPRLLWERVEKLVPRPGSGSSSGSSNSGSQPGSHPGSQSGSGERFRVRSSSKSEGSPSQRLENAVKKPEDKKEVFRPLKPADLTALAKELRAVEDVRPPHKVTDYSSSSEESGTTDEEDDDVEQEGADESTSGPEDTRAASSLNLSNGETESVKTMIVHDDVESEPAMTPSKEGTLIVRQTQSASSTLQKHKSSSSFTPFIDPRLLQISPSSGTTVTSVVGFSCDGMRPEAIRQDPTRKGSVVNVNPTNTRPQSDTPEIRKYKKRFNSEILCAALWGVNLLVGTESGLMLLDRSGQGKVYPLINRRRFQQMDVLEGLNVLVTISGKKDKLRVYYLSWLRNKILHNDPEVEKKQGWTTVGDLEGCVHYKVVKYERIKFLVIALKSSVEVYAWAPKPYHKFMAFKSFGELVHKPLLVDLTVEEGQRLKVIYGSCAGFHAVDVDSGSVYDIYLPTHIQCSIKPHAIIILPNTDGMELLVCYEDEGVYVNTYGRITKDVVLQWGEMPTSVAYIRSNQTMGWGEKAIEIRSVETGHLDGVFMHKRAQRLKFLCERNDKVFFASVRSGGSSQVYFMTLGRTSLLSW
# [9] = biological target: T9, panel of 374 wild-type kinases (Homo sapiens, UniProt P37173); conditions: read-out: % Enzyme Activity (relative to DMSO controls), kinase TGFBR2
# T9 construct: purchased Reaction Biology Corporation
# [10] = biological target: T10, panel of 374 wild-type kinases (Homo sapiens, UniProt P46734); conditions: read-out: % Enzyme Activity (relative to DMSO controls), MEK3
# T10 construct: purchased Reaction Biology Corporation
# T10 sequence (P46734 1-347): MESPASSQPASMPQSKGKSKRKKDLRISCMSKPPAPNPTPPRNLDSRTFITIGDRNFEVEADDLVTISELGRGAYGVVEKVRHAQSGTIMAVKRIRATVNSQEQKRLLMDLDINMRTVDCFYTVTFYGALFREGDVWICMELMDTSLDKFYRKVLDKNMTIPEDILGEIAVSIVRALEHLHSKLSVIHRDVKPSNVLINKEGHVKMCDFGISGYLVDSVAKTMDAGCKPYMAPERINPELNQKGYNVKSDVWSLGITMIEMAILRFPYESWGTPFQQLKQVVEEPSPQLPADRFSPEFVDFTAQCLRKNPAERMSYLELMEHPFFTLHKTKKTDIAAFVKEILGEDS
SMILES,remaining activity at 5 µM [1] [%],remaining activity at 5 µM [2] [%],remaining activity at 5 µM [3] [%],remaining activity at 5 µM [4] [%],remaining activity at 5 µM [5] [%],remaining activity at 5 µM [6] [%],remaining activity at 5 µM [7] [%],remaining activity at 5 µM [8] [%],remaining activity at 5 µM [9] [%],remaining activity at 5 µM [10] [%],remaining activity at 10 µM ([1]; 10 uM) [%],remaining activity at 10 µM ([2]; 10 uM) [%],remaining activity at 10 µM ([3]; 10 uM) [%],remaining activity at 10 µM ([4]; 10 uM) [%],remaining activity at 10 µM ([5]; 10 uM) [%],remaining activity at 10 µM ([6]; 10 uM) [%],remaining activity at 10 µM ([7]; 10 uM) [%],remaining activity at 10 µM ([8]; 10 uM) [%],remaining activity at 10 µM ([9]; 10 uM) [%],remaining activity at 10 µM ([10]; 10 uM) [%]
"O=C(Nc1cnn(-c2csc(C(=O)NC3COC3)c2)c1)Nc1ccccc1Cl [Compound 17, 4-(4-(3-(2-chlorophenyl)ureido)-1H-pyrazol-1-yl)-N-(oxetan-3-yl)thiophene-2-carboxamide]",89.8,110,103,113,89.6,100,94.5,81.1,113,104,,,,,,,,,,
"O=C(Nc1cnn(-c2csc(C(=O)NC3COC3)c2)c1)Nc1c(F)cccc1Cl [Compound 25, 4-(4-(3-(2-chloro-6-fluorophenyl)ureido)-1H-pyrazol-1-yl)-N-(oxetan-3-yl)thiophene-2-carboxamide]",90.8,96.5,91.2,90.7,88.6,105,86.8,90.4,82.6,111,,,,,,,,,,
"Cc1sc(C(=O)NC2COC2)cc1-n1cc(NC(=O)Nc2c(F)cccc2Cl)cn1 [Compound 27, 4-(4-(3-(2-chloro-6-fluorophenyl)ureido)-1H-pyrazol-1-yl)-5-methyl-N-(oxetan-3-yl)thiophene-2-carboxamide]",,,,,,,,,,,76.7,76.8,98.6,112,97.9,86.6,103,93.4,86.8,88.8
